Measured values reported in patent US6262054A (priority 1996, dated 2001).
Entries after “also recorded” stand apart in the source; their conditions may differ. Read-outs that look alike come from different tables or passages of the source.

Tests used:
[1] = in vivo; details: mouse, in vivo, ip
Source text: (§1) Combination treatment in mice. The P388 lymphoidal tumor was transplanted intraperitoneally (10^6 cells/mouse) into […] mice. The animals were randomized into control and treated groups after tumor implant. […] Therapy was repeated three times at four day intervals between each treatment.

[2] = test system: P388 Murine Tumor; assay: in vivo; details: for Increased Life-Span / Long-term Survivors / Median Survival Time (± SEM): at maximum tolerated dose, q4d × 3 ip
Source text: as §1

[3] = test system: dihydrofolate reductase; details: cited from earlier work
[4] = test system: a number of tumors; details: preclinical tests; cited from earlier work
[5] = test system: sensitive tumor cells; details: cited from earlier work
[6] = test system: non-small cell lung cancer; details: single agent; cited from earlier work
[7] = test system: non-Hodgkin's lymphoma; details: single agent; cited from earlier work
[8] = test system: head and neck carcinoma; details: single agent; cited from earlier work
[9] = test system: breast cancer; details: cited from earlier work; for curative effect of the single agent: alone, metastatic breast cancer patients; for antitumor activity: single agent
[10] = test system: smallcell lung cancer; details: single agent; cited from earlier work
[11] = test system: metastatic colorectal carcinoma; details: single agent; cited from earlier work
[12] = cited from earlier work
[13] = test system: refractory ovarian cancer; details: in vivo; cited from earlier work
[14] = test system: microtubules; details: cited from earlier work

With CCC(Cc1cnc2nc(N)nc(N)c2n1)c1ccc(C(=O)N[C@@H](CCC(=O)O)C(=O)O)cc1 (some centres unmarked) [EDX, 10-ethyl-10-deaza-aminopterin] the MTD [1] was 100 mg/kg, the “Therapeutic activity (in words)” value ([2]; P388 in mice, maximum tolerated dose) was “more effective than MTX” and the “Increased Life-Span” value [2] was “+338%”. For the same molecule, the “Long-term Survivors” value [2] was 1/5, the “Median Survival Time (± SEM)” value [2] was 35 ± 4 days and the “inhibition of dihydrofolate reductase” value ([3]; listed as Edatrexate) was “inhibits dihydrofolate reductase”. For the same molecule, the “inhibition of dihydrofolate reductase” value ([3]; listed as edatrexate) was “inhibitor of dihydrofolate reductase”, the “antitumor activity compared with methotrexate” value [4] was “greater antitumor activity than methotrexate against a number of tumors” and the “accumulation / retention in tumor cells compared with methotrexate” value [5] was “accumulated in sensitive tumor cells to a greater extent than its predecessor methotrexate and was more selectively retained by the tumor cells”. The response rates [6] was about 30%, the antitumor activity [7] was “Antitumor activity of edatrexate has also been observed” and the antitumor activity [8] was “Antitumor activity of edatrexate has also been observed”. For the same molecule, the “curative effect of the single agent” value [9] was “neither edatrexate nor paclitaxel alone is curative for most metastatic breast cancer patients”, the antitumor activity [9] was “Antitumor activity of edatrexate has also been observed” and the anti-tumor activity [10] was “No anti-tumor activity was observed”. For the same molecule, the anti-tumor activity [11] was “No anti-tumor activity was observed”, the “dosage limit due to side effects” value ([12]; given occasionally) was “up to 120 mg/m^2 /week” and the primary toxic effect ([12]; single agent) was “mucositis”. The “dosage limit due to side effects” value ([12]; usual) was 80 mg/m^2 body surface area/week.

In the case of CN(Cc1cnc2nc(N)nc(N)c2n1)c1ccc(C(=O)N[C@@H](CCC(=O)O)C(=O)O)cc1 [MTX, methotrexate], the MTD [1] is reported as 55 mg/kg, the “Long-term Survivors” value [2] is reported as 0/5 and the “Median Survival Time (± SEM)” value [2] is reported as 27 ± 3 days. For the same molecule, the “inhibition of dihydrofolate reductase” value [3] was “inhibitor of dihydrofolate reductase; also recorded: inhibits dihydrofolate reductase”.

With CC(=O)O[C@H]1C(=O)[C@@]2(C)[C@H]([C@H](OC(=O)c3ccccc3)[C@]3(O)C[C@H](OC(=O)[C@H](O)[C@@H](NC(=O)c4ccccc4)c4ccccc4)C(C)=C1C3(C)C)[C@]1(OC(C)=O)CO[C@@H]1C[C@@H]2O [TXL, paclitaxel] the MTD [1] was 18 mg/kg, the “Increased Life-Span” value [2] was “+100%” and the “Long-term Survivors” value [2] was 0/5. For the same molecule, the “Median Survival Time (± SEM)” value [2] was 16 ± 2 days, the “curative effect of the single agent” value [9] was “neither edatrexate nor paclitaxel alone is curative for most metastatic breast cancer patients” and the antitumor activity [9] was “anti-tumor properties in some breast cancer patients”. For the same molecule, the activity [13] was “activity against refractory ovarian cancer”, the “effect on microtubule assembly and stability” value [14] was “promotes the assembly of microtubules from tubulin dimers and stabilizes microtubules by preventing depolymerization” and the “primary dose limiting toxic effect” value ([12]; single agent) was “myelosuppression”.
